# Patent US7557099B2, “Pyrrolobenzodiazepines as key intermediates in the synthesis of dimeric cytotoxic pyrrolobenzodiazepines” (Spirogen Limited, priority 2004, dated 2009)
# Read-outs that look alike come from different tables or passages of the source.
# Assays:
# [1] = tested on: K562 human chronic myeloid leukaemia cells; test: In vitro cytotoxicity, K562 cells, MTT assay; type: cell-based; details: Homo sapiens
# Procedure: K562 human chronic myeloid leukaemia cells were maintained in RPM1 1640 medium supplemented with 10% fetal calf serum and 2 mM glutamine at 37° C. in a humidified atmosphere containing 5% CO2 and were incubated with a specified dose of drug for 1 hour or 96 hours at 37° C. in the dark. The incubation was terminated by centrifugation (5 min, 300 g) and the cells were washed once with drug-free medium. Following the appropriate drug treatment, the cells were transferred to 96-well microtiter plates (10^4 cells per well, 8 wells per sample). Plates were then kept in the dark at 37° C. in a humidified atmosphere containing 5% CO2. The assay is based on the ability of viable cells to reduce a yellow soluble tetrazolium salt, 3-(4,5-dimethylthiazol-2-yl)-2,5-diphenyl-2H-tetrazolium bromide (MTT, Aldrich-Sigma), to an insoluble purple formazan precipitate. Following incubation of the plates for 4 days (to allow control cells to increase in number by approximately 10 fold), 20 μL of MTT solution (5 mg/mL in phosphate-buffered saline) was added to each well and the plates further incubated for 5 hours. The plates were then centrifuged for 5 minutes at 300 g and the bulk of the medium pipetted from the cell pellet leaving 10-20 μL per well. DMSO (200 μL) was added to each well and the samples agitated to ensure complete mixing. The optical density was then read at a wavelength of 550 nm on a Titertek Multiscan ELISA plate reader, and a dose-response curve was constructed. For each curve, an IC50 value was read as the dose required to reduce the final optical density to 50% of the control value.
# [2] = tested on: approximately 60 human tumour cell lines; test: NCI 60 cell screen, SRB assay; type: cell-based; details: Homo sapiens, 48 hour continuous exposure
# Procedure: The National Cancer Institute (NCI), Bethesda, Md., USA has available an in vitro cytotoxicity screen which consists of approximately 60 human tumour cell lines against which compounds are tested at a minimum of five concentrations each differing 10-fold. A 48 hour continuous exposure protocol is used, where cell viability or growth is estimated with an SRB protein assay.
# The test compounds were evaluated against approximately 60 human tumour cell lines. The NCI screening procedures were described in detail by Monks and co-workers (Monks, A et al., Journal of the National Cancer Institute, 1991, 83, 757). Briefly, cell suspensions were diluted according to the particular cell type and the expected target cell density (5000-40,000 cells per well based on cell growth characteristics), and added by pipette (100 μL) into 96-well microtitre plates. The cells were allowed a preincubation period of 24 hours at 37° C. for stabilisation. Dilutions at twice the intended test concentration were added at time zero in 100 μL aliquots to the wells. The test compounds were evaluated at five 10-fold dilutions (10^−4, 10^−5, 10^−6, 10^−7 and 10^−[…]). The test compounds were incubated for 48 hours in 5% CO2 atmosphere and 100% humidity. The cells were then assayed using the sulphorhodamine B assay. A plate reader was used to read the optical densities and a microcomputer processed the readings into GI50 values (in Moles), which is the dosage required to limit cell growth to 50%.
# linear pBR322 DNA = test: DNA cross-linking, electrophoretic assay (XL50); type: biochemical; details: concentration giving 50% cross-linked plasmid DNA; 2 hours, 37° C., pH 7.2
# Procedure: The extent of DNA cross-linking induced by each PBD dimer was determined using the electrophoretic assay method of Hartley, et al. (Hartley, J. A., Berardini, M. D., and Souhami, R. L. (1991) Anal. Biochem. 193, 131-134) based on the principle that, following complete denaturation of linear pBR322 DNA (˜4,300 bp) to the single-stranded (SS) form, an interstrand cross-link results in renaturation to double-stranded (DS) in a neutral gel.
# Closed-circular DNA was linearized with HindIII, then dephosphorylated and finally 5′-singly end-labelled using [γ^32P]-ATP and polynucleotide kinase. Reactions containing 30-40 ng of DNA and the test compound were carried out in aqueous TEOA (25 mM triethanolamine, 1 mM EDTA, pH 7.2) buffer at 37° C. in a final volume of 50 μl for 2 hours. Reactions were terminated by addition of an equal volume of stop solution (0.6 M NaOAc, 20 mM EDTA, 100 μg/ml tRNA) followed by precipitation with ethanol. Following centrifugation, the supernatant was discarded and the pellet dried by lyophilization. Samples were re-suspended in 10 μl of strand separation buffer (30% DMSO, 1 mM EDTA, 0.04% bromophenol blue and 0.04% xylene cylanol) and denatured by heating to 90° C. for 2.5 min, followed by immersion in an ice/water bath. Control non-denatured samples were re-suspended in 10 μl of non-denaturing buffer solution (0.6% sucrose, 0.04% bromophenol blue in aqueous TAE buffer [40 mM Tris, 20 mM acetic acid, 2 mM EDTA, pH 8.1]) and loaded directly onto the gel for comparison.
# Electrophoresis was carried out for 14-16 h at 40 V using a 0.8% submerged agarose gel (20×25×0.5 cm) in TAE buffer. Gels were dried under vacuum for 2 hour at 80° C. onto one layer each of Whatman 3MM and DE8I filter papers using a BioRad 583 gel dryer. Autoradiographs were obtained after exposure of Hyperfilm-MP film (Amersham plc, U.K.) to the dried gel for either 4 hour with a screen (or over night, without a screen, to obtain a sharper image). Film bands were quantitated using a BioRad GS-670 imaging laser densitometer. Percentage cross-linking was calculated by measuring the total DNA in each lane (summed density for the double-stranded [DS] and single-stranded [SS] bands) relative to the amount of cross-linked DNA (density of DS band alone). A dose-response curve was derived by plotting drug concentration against the determined percentage level of cross-linked DNA which was then analysed to determine the concentration of test compound that results in 50% cross-linked plasmid DNA (XL50).
# [3] = 1 hr exposure, read-out: IC50 1 hr exposure
Structure (SMILES),"IC50 [1, 3] [nM]",GI50 [2] [nM],EC50 (linear pBR322 DNA) [nM],"IC50 ([1]; 96 hr exposure, sub-table of 29a-c, read-out: IC50 96 hr exposure) [nM]",GI50 ([2]; sub-table of 29a-c) [nM]
"COc1ccc2c(c1)N=C[C@H]1C(OCCCCCCCOC3CCN4C(=O)c5ccc(OC)cc5N=C[C@@H]34)CCN1C2=O (stereo partly drawn) [Compound 9e, 1,1′-[(Heptane-1,7-diyl)dioxy]bis[(11aS)-8-methoxy-1,2,3,11a-tetrahydro-5H-pyrrolo[2,1-c][1,4]benzodiazepine-5-one]]",> 30000,2690,20000,–,–
"COc1ccc2c(c1)N=C[C@H]1C(OCCCCCCCCCCCCOC3CCN4C(=O)c5ccc(OC)cc5N=C[C@@H]34)CCN1C2=O (stereo partly drawn) [Compound 9j, 1,1′-[(Dodecane-1,12-diyl)dioxy]bis[(11aS)-8-methoxy-1,2,3,11a-tetrahydro-5H-pyrrolo[2,1-c][1,4]benzodiazepine-5-one]]",9120,210,> 100000,–,–
"C=C1CN2C(=O)c3cc(OC)ccc3N=C[C@H]2C1OCCCCCCCCCCOC1C(=C)CN2C(=O)c3cc(OC)ccc3N=C[C@@H]12 (stereo partly drawn) [Compound 29c, 1,1′-[(Decane-1,10-diyl)dioxy]bis[(11aS)-7-methoxy-2-methylene-1,2,3,11a-tetrahydro-5H-pyrrolo[2,1-c][1,4]benzodiazepine-5-one]]",–,–,3900,100,13.2
"COc1ccc2c(c1)C(=O)N1CCC(OCCCOC3CCN4C(=O)c5cc(OC)ccc5N=C[C@@H]34)[C@@H]1C=N2 (stereo partly drawn) [Compound 16a, 1,1′-[(Propane-1,3-diyl)dioxy]bis[(11aS)-7-methoxy-1,2,3,11a-tetrahydro-5H-pyrrolo[2,1-c][1,4]benzodiazepine-5-one]]",12800,3160,50,–,–
"COc1ccc2c(c1)C(=O)N1CCC(OCCCCCCOC3CCN4C(=O)c5cc(OC)ccc5N=C[C@@H]34)[C@@H]1C=N2 (stereo partly drawn) [Compound 16d, 1,1′-[(Hexane-1,6-diyl)dioxy]bis[(11aS)-7-methoxy-1,2,3,11a-tetrahydro-5H-pyrrolo[2,1-c][1,4]benzodiazepine-5-one]]",1000,310,750,–,–
"COc1ccc2c(c1)N=C[C@H]1C(OCCCCCCCCCCCOC3CCN4C(=O)c5ccc(OC)cc5N=C[C@@H]34)CCN1C2=O (stereo partly drawn) [Compound 9i, 1,1′-[(Undecane-1,11-diyl)dioxy]bis[(11aS)-8-methoxy-1,2,3,11a-tetrahydro-5H-pyrrolo[2,1-c][1,4]benzodiazepine-5-one]]",9000,570,190,–,–
